Measurements taken from US7625943B2, “5-alkyl-7-alkylcarbonate-isoflavone ester and related method” (priority 2004, dated 2009).

Tests used:
duration of action = assay type: in vivo; settings: estimated; ratio to 5-methyl-7-methoxy-isoflavone
Description: One limitation of known prodrugs is that, once they are transformed into the parent drug, they are broken down in the body, and particularly in the liver. This breakdown reduces in vivo concentration and bioavailability of the drug. This breakdown effect has been observed with 5-methyl-7-methoxy-isoflavone. In the presently preferred embodiments of the invention, however, the compounds are less prone to such breakdown in the body relative to many known prodrug-type compounds. This in many instances is attributable to the alkylcarbonate ester promoiety, which makes the compound more resistant to hydrolysis and other reactions that inhibit or destroy them in the body. In vivo concentrations thus can be maintained more readily, and bioavailability of the parent isoflavone can be improved. It has been estimated that the duration of action for 5-methyl-7-ethylcarbonate-isoflavone may be twice that of 5-methyl-7-methoxy-isoflavone.

[1] = administered to a human; estimated; cited from earlier work
[2] = after transformation into the parent drug; cited from earlier work

| SMILES | duration of action relative to 5-methyl-7-methoxy-isoflavone (duration of action) | proportion of administered prodrug converted in vivo to 7-hydroxy-5-methyl-isoflavone [1] | breakdown effect in the body (liver) reducing in vivo concentration and bioavailability [2] |
| --- | --- | --- | --- |
| CCOC(=O)Oc1cc(C)c2c(=O)c(-c3ccccc3)coc2c1 [5-methyl-7-ethylcarbonate-isoflavone] | twice |  |  |
| COc1cc(C)c2c(=O)c(-c3ccccc3)coc2c1 [5-methyl-7-methoxy-isoflavone] |  | approximately 50% | observed |
